Biological target: α7 subunit of the nicotinic Acetylcholine Receptor (nAchR) (Homo sapiens, UniProt P36544)
Type: biochemical

Sequence of α7 subunit of the nicotinic Acetylcholine Receptor (nAchR) (P36544 23-502 limits assumed): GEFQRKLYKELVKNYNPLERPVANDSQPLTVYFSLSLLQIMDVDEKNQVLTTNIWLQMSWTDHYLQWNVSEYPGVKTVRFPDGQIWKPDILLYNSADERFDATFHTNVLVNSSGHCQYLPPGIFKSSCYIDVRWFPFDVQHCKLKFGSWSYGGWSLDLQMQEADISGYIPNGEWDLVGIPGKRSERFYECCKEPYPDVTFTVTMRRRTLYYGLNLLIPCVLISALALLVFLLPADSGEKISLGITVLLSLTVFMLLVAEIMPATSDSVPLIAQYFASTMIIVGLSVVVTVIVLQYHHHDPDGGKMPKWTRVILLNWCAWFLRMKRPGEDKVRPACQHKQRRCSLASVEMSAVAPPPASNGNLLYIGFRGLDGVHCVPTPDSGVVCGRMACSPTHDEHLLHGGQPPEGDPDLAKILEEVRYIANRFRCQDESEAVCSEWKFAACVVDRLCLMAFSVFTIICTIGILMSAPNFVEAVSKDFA

Row | Compound | signal on activation of the nAchR sensor | carbamoylcholine-induced signal after incubation with inhibitor
1 | C[N+](C)(C)CCOC(N)=O.[Cl-] [carbamoylcholinechloride, Carbamoylcholine chloride] | results in a signal | 
2 | α-Bungarotoxin [α-BTX] |  | could not be generated the same way

Source: patent publication US20130203110A1 (priority 2010, published 2013)
